According to patent US20240262842A1, “SMALL MOLECULE INHIBITORS OF KRAS G12C MUTANT” (Merck Sharp & Dohme LLC, priority 2021, published 2024):

Assays:
[1] = biological target: T1, interaction between GMPPNP-bound recombinant K-Ras4B G12C mutant protein and cRAF RAS-binding domain (cRAF-RBD) (Homo sapiens, UniProt P01116, G12C); assay: Inhibitory activity on interaction between KRAS G12C and cRAF (Alpha technology); settings: GMPPNP-bound KRAS G12C incubated with compound 25° C. 1 hour; Table 2-1; read-out: IC50
T1 construct: His-tag (N)
T1 sequence (P01116 with tags, fused parts or gaps isoform P01116-2 G12C): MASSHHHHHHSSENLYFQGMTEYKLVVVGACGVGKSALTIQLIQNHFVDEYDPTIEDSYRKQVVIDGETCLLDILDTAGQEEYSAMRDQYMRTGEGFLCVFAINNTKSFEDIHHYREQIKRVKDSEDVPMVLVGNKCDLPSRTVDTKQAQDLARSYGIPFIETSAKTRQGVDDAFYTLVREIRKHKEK
In short: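 His-tagged K-Ras4B G12C (aa 1-169), GMPPNP-loaded, preincubated with compound 1 h at 25° C in pH 7.5 Tris buffer with MgCl2, TCEP, Tween 20. cRAF-RBD (aa 50-132) and Alpha reagents then added for 1.5 h; Alpha signal normalised to DMSO (0%) and GDP-bound KRAS (100%); IC50 from dose titration.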

[2] = system: MIA PaCa-2 cells; assay: Growth inhibition activity on KRAS-G12C mutant cell line (CellTiter-Glo 3D); assay type: cell-based, human; settings: Homo sapiens, MIA PaCa-2, 72 h, MIA PaCa-2, 3-day culture with compound; Table 3-1
In short: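 MIA PaCa-2 cells in RPMI1640 with 10% FBS, U-bottom wells, cultured 1 day before compound (0.2% DMSO final), then 3 days at 37 °C, 5% CO2. Viability by CellTiter-Glo 3D luminescence; growth inhibition versus untreated wells gives IC50 (nM).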

SMILES	IC50 [1] [nM]	IC50 [2] [nM]
COc1cc2c(nc(C(F)(F)F)n2C)c2c1-c1cccn3c(C(=O)c4cc(F)c(NC(=O)/C=C/CN[C@H]5CCOC5)c(F)c4)cc(c13)CCN2C (single isomer, unassigned) [Example 168]	43.8	15.6
COCc1nc2c3c(c(OC)cc2n1C)-c1cccn2c(C(=O)c4cc(F)c(NC(=O)/C=C/CNC5(C)COC5)c(F)c4)cc(c12)CCN3C (single isomer, unassigned) [Example 170, (E)-N-(2,6-difluoro-4-(7-methoxy-10-(methoxy-methyl)-9,12-dimethyl-9,12,13,14-tetrahydro-imidazo[4″,5″:5′,6′]benzo-[1′,2′:2,3]azocino[4,5,6-hi]indolizine-2-carbonyl)-phenyl)-4-((3-methyl-oxetan-3-yl)amino)but-2-enamide]	14.1	47.7
COCc1nc2c3c(c(OC)cc2n1C)-c1cccn2c(C(=O)c4cc(F)c(NC(=O)/C=C/CN[C@H]5CCOC5)c(F)c4)cc(c12)CCN3C (single isomer, unassigned) [Example 171]	6.34	13.5
Cc1c2cc(C(F)(F)F)c3c(c2nn1C)N(C)CCc1nc(C(=O)c2cc(F)c(NC(=O)/C=C/CN[C@H]4CCOC4)c(F)c2)n2cccc-3c12 (single isomer, unassigned) [Example 176]	67.4	25.1
COCc1nc2c3c(c(OC)cc2n1C)-c1cccn2c(C(=O)c4cc(F)c(NC(=O)/C=C/CN[C@H]5CCOC5)c(F)c4)nc(c12)CCN3C (single isomer, unassigned) [Example 177]	39.5	38.5
COCCn1cnc2c3c(c(C(F)(F)F)cc21)-c1cccn2c(C(=O)c4cc(F)c(NC(=O)/C=C/CNC5(C)COC5)c(F)c4)cc(c12)CCN3C (single isomer, unassigned) [Example 178, (E)-N-(2,6-difluoro-4-(9-(2-methoxyethyl)-12-methyl-7-(trifluorometh-yl)-9,12,13,14-tetrahydro-imidazo[4″,5″:5′,6′]benzo-[1′,2′:2,3]azocino[4,5,6-hi]indolizine-2-carbonyl)-phenyl)-4-((3-methyl-oxetan-3-yl)amino)but-2-enamide]	32.4	41.3
CN1CCc2cc(C(=O)c3cc(F)c(NC(=O)/C=C/CNC4(C)COC4)c(F)c3)n3cccc(c23)-c2c(C(F)(F)F)cc3[nH]cnc3c21 (single isomer, unassigned) [Example 179, (E)-N-(2,6-difluoro-4-(12-methyl-7-(trifluorometh-yl)-9,12,13,14-tetrahydro-imidazo[4″,5″:5′,6′]benzo-[1′,2′:2,3]azocino[4,5,6-hi]indolizine-2-carbonyl)-phenyl)-4-((3-methyloxe-tan-3-yl)amino)but-2-enamide]	41.6	139
CN1CCc2cc(C(=O)c3cc(F)c(NC(=O)/C=C/CN4CC[C@H]4C(C)(C)O)c(F)c3)n3cccc(c23)-c2c(C(F)(F)F)cc3c(ncn3C)c21 (single isomer, unassigned) [Example 180]	49.3	12.7
COCc1nc2c3c(c(OC)cc2n1C)-c1cccn2c(C(=O)c4cc(F)c(NC(=O)/C=C/CNC5(C)CC5)c(F)c4)nc(c12)CCN3C (single isomer, unassigned) [Example 181, (E)-N-(2,6-difluoro-4-(6-methoxy-9-(methoxy-methyl)-8,11-dimethyl-8,11,12,13-tetrahydro-1,2a,8,10,11-pentaaza-cycloocta[1,2,3-cd:5,4-e′]-diindene-2-carbonyl)phen-yl)-4-((1-methylcyclo-propyl)amino)but-2-en-amide]	48.1	21
CN1CCc2nc(C(=O)c3cc(F)c(NC(=O)/C=C/CNC4(C)CC4)c(F)c3)n3cccc(c23)-c2c(C(F)(F)F)cc3c(ncn3C)c21 (single isomer, unassigned) [Example 182]	35.2	27.8

Further lines, results first:

IC50 [1] [nM]	IC50 [2] [nM]	SMILES
35.2	112	CC1(NC/C=C/C(=O)Nc2c(F)cc(C(=O)c3cc4c5c(cccn35)-c3c(cc(N5CCCC5=O)cc3C(F)(F)F)OCC4)cc2F)COC1 (single isomer, unassigned) [Example 183, (E)-N-(2,6-difluoro-4-(7-(2-oxopyrrolidin-1-yl)-9-(trifluoromethyl)-3,4-dihydrobenzo[2,3]oxocino-[4,5,6-hi]indolizine-1-carbonyl)phenyl)-4-((3-methyloxetan-3-yl)-amino)-but-2-enamide]
48.3	28.1	COCc1nc2c3c(c(C(F)(F)F)cc2n1C)-c1cccn2c(C(=O)c4cc(F)c(NC(=O)/C=C/CN[C@H]5CCOC5)c(F)c4)nc(c12)CCN3C (single isomer, unassigned) [Example 184]
16.7	10.3	COCCn1cnc2c3c(c(C(F)(F)F)cc21)-c1cccn2c(C(=O)c4cc(F)c(NC(=O)/C=C/CN[C@H]5CCOC5)c(F)c4)cc(c12)CCN3C (single isomer, unassigned) [Example 186]
72.5	39.7	COCc1nc2c3c(c(OC)cc2n1C)-c1cccn2c(C(=O)c4cc(F)c(NC(=O)/C=C/CN5CCCC5)c(F)c4)cc(c12)CCN3C (single isomer, unassigned) [Example 188, (E)-N-(2,6-difluoro-4-(7-methoxy-10-(methoxy-methyl)-9,12-dimethyl-9,12,13,14-tetrahydro-imidazo[4″,5″:5′,6′]benzo-[1,2:2,3]azocino[4,5,6-hi]indolizine-2-carbonyl)-phenyl)-4-(pyrrolidin-1-yl)but-2-enamide]
10.1	3.67	CN1CCc2cc(C(=O)c3cc(F)c(NC(=O)/C=C/CN4CC[C@H]4CO)c(F)c3)n3cccc(c23)-c2c(C(F)(F)F)cc3c(ncn3C)c21 (single isomer, unassigned) [Example 199]
13.7	4.62	COCCn1c(C)nc2c3c(c(OC)cc21)-c1cccn2c(C(=O)c4cc(F)c(NC(=O)/C=C/CNC5(C)CC5)c(F)c4)cc(c12)CCN3C (single isomer, unassigned) [Example 200, (E)-N-(2,6-difluoro-4-(7-methoxy-9-(2-methoxyethyl)-10,12-dimethyl-9,12,13,14-tetrahydroimidazo[4″,5″:5′,6′]benzo[1′,2′:2,3]azocino[4,5,6-hi]indolizine-2-carbonyl)phenyl)-4-((1-methylcyclopropyl)amino)but-2-enamide]
17.6	5.83	COCCn1c(C)nc2c3c(c(OC)cc21)-c1cccn2c(C(=O)c4cc(F)c(NC(=O)/C=C/CN[C@H]5CCOC5)c(F)c4)cc(c12)CCN3C (single isomer, unassigned) [Example 201]
13	10.2	COCCn1cnc2c3c(c(OC)cc21)-c1cccn2c(C(=O)c4cc(F)c(NC(=O)/C=C/CNC5(C)CC5)c(F)c4)cc(c12)CCN3C (single isomer, unassigned) [Example 202, (E)-N-(2,6-difluoro-4-(7-methoxy-9-(2-methoxy-ethyl)-12-methyl-9,12,13,14-tetrahydro-imidazo[4″,5″:5′,6′]benzo-[1′,2′:2,3]azocino[4,5,6-hi]indolizine-2-carbonyl)-phenyl)-4-((1-methyl-cyclopropyl)amino)but-2-enamide]
20.4	11	COCCn1cnc2c3c(c(OC)cc21)-c1cccn2c(C(=O)c4cc(F)c(NC(=O)/C=C/CN[C@H]5CCOC5)c(F)c4)cc(c12)CCN3C (single isomer, unassigned) [Example 203]
